Results published in ChEMBL document CHEMBL4742395, “Substituted Pyrazole Derivatives As Selective CDK12/13 Inhibitors” (2019).

Key:
[1] = molecular target: T1, Cyclin-dependent kinase 12 (Homo sapiens, UniProt Q9NYV4); test: Inhibition of CDK12 (unknown origin) using ULight - 4E - BP1( Thr37 / Thr46 ) as substrate preincubated for 60 mins bu LANCE-TR-FRET assay
Target sequence in this assay (Q9NYV4 whole entry): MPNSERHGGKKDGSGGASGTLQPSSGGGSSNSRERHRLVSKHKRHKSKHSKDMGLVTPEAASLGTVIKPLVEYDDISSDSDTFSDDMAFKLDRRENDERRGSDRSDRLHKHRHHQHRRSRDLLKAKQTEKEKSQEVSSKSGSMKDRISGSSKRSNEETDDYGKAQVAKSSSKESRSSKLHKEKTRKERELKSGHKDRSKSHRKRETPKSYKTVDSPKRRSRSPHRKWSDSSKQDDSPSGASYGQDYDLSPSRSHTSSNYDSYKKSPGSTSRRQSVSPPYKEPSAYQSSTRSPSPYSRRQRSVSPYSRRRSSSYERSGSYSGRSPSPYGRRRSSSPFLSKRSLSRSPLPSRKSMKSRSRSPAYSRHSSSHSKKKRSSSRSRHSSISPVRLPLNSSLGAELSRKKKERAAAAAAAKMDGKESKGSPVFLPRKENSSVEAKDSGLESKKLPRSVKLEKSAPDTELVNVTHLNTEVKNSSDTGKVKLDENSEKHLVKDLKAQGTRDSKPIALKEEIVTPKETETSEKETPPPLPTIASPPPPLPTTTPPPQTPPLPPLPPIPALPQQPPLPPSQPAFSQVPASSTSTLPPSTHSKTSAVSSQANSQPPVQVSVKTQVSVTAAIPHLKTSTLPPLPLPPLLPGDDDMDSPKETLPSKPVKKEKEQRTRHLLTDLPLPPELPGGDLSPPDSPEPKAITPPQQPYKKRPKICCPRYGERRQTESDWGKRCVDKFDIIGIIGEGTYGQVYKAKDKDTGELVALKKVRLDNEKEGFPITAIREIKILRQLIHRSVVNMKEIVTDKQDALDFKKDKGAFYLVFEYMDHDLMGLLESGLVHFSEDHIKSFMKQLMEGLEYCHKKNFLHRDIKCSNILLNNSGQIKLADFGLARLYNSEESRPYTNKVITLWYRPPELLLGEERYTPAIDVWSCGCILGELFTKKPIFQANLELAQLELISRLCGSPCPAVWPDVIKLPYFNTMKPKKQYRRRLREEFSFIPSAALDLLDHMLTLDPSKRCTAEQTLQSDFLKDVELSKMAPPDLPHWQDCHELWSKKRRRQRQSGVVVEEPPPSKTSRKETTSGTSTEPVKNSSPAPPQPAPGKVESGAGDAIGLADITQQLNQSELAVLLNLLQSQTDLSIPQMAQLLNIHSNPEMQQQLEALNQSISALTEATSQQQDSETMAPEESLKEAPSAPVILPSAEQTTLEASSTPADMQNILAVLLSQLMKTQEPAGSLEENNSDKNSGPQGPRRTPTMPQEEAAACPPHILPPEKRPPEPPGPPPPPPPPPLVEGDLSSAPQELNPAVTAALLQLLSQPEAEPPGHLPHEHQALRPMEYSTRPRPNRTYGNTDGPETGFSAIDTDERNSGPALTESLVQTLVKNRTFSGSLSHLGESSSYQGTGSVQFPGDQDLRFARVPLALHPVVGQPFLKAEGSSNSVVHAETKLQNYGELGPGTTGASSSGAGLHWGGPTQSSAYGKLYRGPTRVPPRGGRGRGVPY

[2] = molecular target: Cyclin-dependent kinase 13 (Homo sapiens, UniProt Q14004); test: Binding affinity to CDK13 (unknown origin) by TR-FRET assay
[3] = species on record: Homo sapiens; test: Selectivity index, ratio of IC50 for inhibition of CDK7 (unknown origin) to IC50 for inhibition of CDK12 (unknown origin)
[4] = species on record: Homo sapiens; test: Selectivity index, ratio of IC50 for inhibition of CDK7 (unknown origin) to IC50 for binding affinity to CDK13 (unknown origin)
[5] = molecular target: T1, Cyclin-dependent kinase 12; test: Binding affinity to CDK12 in human Jurkat cells assessed as target occupancy after 6 hrs by spectrophotometry; assay type: cell-based
Target sequence in this assay (Q9NYV4 whole entry, looked up): as the sequence (Q9NYV4 whole entry) above

[6] = molecular target: Cyclin-dependent kinase 7 (Homo sapiens) (UniProt P50613); test: Binding affinity to CDK7 in human Jurkat cells assessed as target occupancy after 6 hrs by spectrophotometry; assay type: cell-based
[7] = species on record: Homo sapiens; test: Selectivity index, ratio of target occupancy for CDK7 in human Jurkat cells to target occupancy for CDK12 in human Jurkat cells; assay type: cell-based

Cyclin-dependent kinase 13, sequence (Q14004 whole entry): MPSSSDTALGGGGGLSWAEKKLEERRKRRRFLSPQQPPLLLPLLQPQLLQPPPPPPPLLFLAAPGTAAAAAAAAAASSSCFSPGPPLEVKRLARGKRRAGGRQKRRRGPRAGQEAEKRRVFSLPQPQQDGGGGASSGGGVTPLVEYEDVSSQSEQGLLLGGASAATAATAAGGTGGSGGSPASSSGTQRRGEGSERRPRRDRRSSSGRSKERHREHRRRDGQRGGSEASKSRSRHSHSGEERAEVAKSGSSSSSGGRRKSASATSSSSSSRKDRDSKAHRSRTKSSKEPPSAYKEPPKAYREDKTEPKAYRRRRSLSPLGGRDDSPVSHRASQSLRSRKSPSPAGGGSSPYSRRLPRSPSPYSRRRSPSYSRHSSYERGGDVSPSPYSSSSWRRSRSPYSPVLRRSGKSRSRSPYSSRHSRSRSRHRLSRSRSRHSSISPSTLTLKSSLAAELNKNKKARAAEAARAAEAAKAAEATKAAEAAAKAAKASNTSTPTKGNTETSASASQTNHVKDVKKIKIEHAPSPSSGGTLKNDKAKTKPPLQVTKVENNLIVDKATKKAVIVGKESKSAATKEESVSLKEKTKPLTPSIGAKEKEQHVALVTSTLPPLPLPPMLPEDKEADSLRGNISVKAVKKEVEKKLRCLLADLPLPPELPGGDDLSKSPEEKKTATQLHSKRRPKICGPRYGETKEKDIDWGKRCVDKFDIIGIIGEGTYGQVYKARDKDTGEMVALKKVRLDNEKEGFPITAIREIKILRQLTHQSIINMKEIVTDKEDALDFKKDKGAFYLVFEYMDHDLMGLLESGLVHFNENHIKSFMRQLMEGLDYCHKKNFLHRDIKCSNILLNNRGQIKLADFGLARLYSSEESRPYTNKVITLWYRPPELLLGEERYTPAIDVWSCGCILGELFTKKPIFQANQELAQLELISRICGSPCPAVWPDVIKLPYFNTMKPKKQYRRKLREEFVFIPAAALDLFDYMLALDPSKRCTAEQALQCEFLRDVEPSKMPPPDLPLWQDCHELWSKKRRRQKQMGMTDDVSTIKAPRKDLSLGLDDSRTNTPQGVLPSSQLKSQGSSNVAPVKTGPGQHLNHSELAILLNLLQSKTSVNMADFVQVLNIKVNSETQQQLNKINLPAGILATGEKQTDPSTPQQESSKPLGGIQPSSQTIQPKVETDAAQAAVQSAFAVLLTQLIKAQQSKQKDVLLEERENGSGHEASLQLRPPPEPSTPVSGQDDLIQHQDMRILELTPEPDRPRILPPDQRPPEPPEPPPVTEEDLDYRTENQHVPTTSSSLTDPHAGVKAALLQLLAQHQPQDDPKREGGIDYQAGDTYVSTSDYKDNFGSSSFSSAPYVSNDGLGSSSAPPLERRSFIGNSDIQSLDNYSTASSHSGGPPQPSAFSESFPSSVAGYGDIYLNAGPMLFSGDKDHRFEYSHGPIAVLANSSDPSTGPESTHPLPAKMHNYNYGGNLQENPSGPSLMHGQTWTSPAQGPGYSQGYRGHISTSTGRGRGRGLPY
Cyclin-dependent kinase 7 (Homo sapiens), sequence (P50613 whole entry): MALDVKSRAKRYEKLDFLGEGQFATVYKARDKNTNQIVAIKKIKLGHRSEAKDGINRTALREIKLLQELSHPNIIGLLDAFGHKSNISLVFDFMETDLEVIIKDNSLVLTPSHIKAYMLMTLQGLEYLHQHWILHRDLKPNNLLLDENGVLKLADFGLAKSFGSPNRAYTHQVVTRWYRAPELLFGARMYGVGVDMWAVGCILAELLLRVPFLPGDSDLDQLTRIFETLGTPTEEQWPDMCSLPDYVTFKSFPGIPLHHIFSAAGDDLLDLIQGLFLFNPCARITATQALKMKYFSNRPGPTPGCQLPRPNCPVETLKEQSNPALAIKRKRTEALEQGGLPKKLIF

| Structure (SMILES) | IC50 [1] | IC50 [2] | Ratio IC50 [3] | Ratio IC50 [4] | Occ50 [5] | Occ50 [6] | Ratio [7] |
| --- | --- | --- | --- | --- | --- | --- | --- |
| C=CC(=O)N1CCC=C(c2ccc(CC(=O)Nc3cc(C4CC4)[nH]n3)cn2)C1 | 23 nM | 4 nM | 75.2 | 432 | 0.016 µM |  |  |
| CC(C(=O)Nc1cc(C2CC2)[nH]n1)c1cccc(C2CCN(C(=O)/C=C/CN(C)C)CC2)c1 (stereo not given) |  |  |  |  | 0.305 µM | 130 nM | 0.425 |
| CC#CC(=O)N1CCC=C(c2ccc(CC(=O)Nc3cc(C4CC4)[nH]n3)cn2)C1 | 37 nM | 5 nM |  |  |  |  |  |
| CCN(CC)C/C=C/C(=O)N1CC=C(c2ccc([C@H](C)C(=O)Nc3cc(C4CC4)[nH]n3)cc2)CC1 | 895 nM | 72 nM |  |  |  |  |  |
| C=CC(=O)N1CC=C(c2ccc(CC(=O)Nc3cc(C4CC4)[nH]n3)cn2)CC1 | 40 nM | 19 nM |  |  | 0.025 µM |  |  |
| C[C@H](C(=O)Nc1cc(C2CC2)[nH]n1)c1ccc(C2=CCN(C(=O)/C=C/CN(C)C)CC2)cc1 |  |  |  |  |  | 1670 nM |  |
| C=CC(=O)N1CCC(c2ccc(C(C)C(=O)Nc3cc(C4CC4)[nH]n3)cn2)C1 (stereo not given) | 55 nM | 6 nM |  |  |  |  |  |
| C=CC(=O)N1CCC=C(c2ccc(C(C(=O)Nc3cc(C4CC4)[nH]n3)C(C)C)cc2)C1 (stereo not given) | 160 nM | 279 nM |  |  |  |  |  |
